What is called AC50 is the concentration at which the activity in the assay is half-maximal.

One experiment deals with T1, human PAH with the R408W mutation (A375 R408W cells) (Homo sapiens, UniProt P00439, R408W).
T1 construct: expressed in transfected cells
T1 sequence (P00439 1-452 R408W): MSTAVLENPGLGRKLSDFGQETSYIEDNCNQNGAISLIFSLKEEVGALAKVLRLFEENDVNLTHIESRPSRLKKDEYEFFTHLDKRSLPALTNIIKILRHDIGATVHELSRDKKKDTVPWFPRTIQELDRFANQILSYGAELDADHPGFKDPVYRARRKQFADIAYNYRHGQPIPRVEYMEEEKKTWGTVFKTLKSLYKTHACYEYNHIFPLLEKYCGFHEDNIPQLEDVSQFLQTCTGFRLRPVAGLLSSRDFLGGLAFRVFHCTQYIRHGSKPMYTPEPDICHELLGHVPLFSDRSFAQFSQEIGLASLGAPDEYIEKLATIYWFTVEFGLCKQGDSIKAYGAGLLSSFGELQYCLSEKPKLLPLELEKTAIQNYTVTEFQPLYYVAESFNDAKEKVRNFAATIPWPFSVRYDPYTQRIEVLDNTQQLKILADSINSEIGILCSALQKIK
The experiment in a line: Cell Based Phenylalanine Flux Assay. As to conditions: A375 R408W cells; 24 hrs with compound, then 20 μM sepiapterin and 800 μM 13C9,15N-Phenylalanine for 4 hours; 13C-Tyrosine by LC-MS; average where tested multiple times. Put shortly: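 Stable R408W PAH A375 cells: 24 h compound pretreatment in duplicate, then 4 h with 800 μM isotope-labelled Phe and 20 μM sepiapterin. Labelled Tyr output by LC-MS; AC50 averaged where repeated.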
For `Cc1ccc2oc([C@H]3c4nc[nH]c4CCN3C(=O)c3oc(-c4ccn(C)n4)nc3C(F)F)nc2c1` [Example 756, (R)-(4-(difluoromethyl)-2-(1-methyl-1H-pyrazol-3-yl)oxazol-5-yl)(4-(5-methylbenzo[d]oxazol-2-yl)-6,7-dihydro-1H-imidazo[4,5-c]pyridin-5(4H)-yl)methanone], the concentration at half-maximal activity (AC50) fell in the range of 1 to 5 µM.

`Cn1cnc(-c2nc(C(F)F)c(C(=O)N3CCc4[nH]cnc4[C@H]3c3nc4cc(F)ccc4o3)o2)c1` [Example 641, (S)-(4-(difluoromethyl)-2-(1-methyl-1H-imidazol-4-yl)oxazol-5-yl)(4-(5-fluorobenzo[d]oxazol-2-yl)-6,7-dihydro-1H-imidazo[4,5-c]pyridin-5(4H)-yl)methanone]: the concentration at half-maximal activity (AC50) was at most 0.5 µM.

For the molecule `O=C(c1nnc(-c2ccccn2)o1)N1CCc2[nH]cnc2[C@H]1c1nc2cccc(C(F)(F)F)c2o1` [Example 838, (S)-(5-(pyridin-2-yl)-1,3,4-oxadiazol-2-yl)(4-(7-(trifluoromethyl)benzo[d]oxazol-2-yl)-6,7-dihydro-1H-imidazo[4,5-c]pyridin-5(4H)-yl)methanone], the AC50 is at most 0.5 µM.

Consider `Cn1nc(C(F)F)cc1C(=O)N1CCc2[nH]cnc2[C@@H]1c1nc2cccc(F)c2o1` [Example 734, (R)-(3-(difluoromethyl)-1-methyl-1H-pyrazol-5-yl)(4-(7-fluorobenzo[d]oxazol-2-yl)-6,7-dihydro-1H-imidazo[4,5-c]pyridin-5(4H)-yl)methanone], for which the AC50 was in the range of 1 to 5 µM.

With `O=C(c1oc(-c2ccc(C(F)(F)F)cn2)nc1C(F)F)N1CCc2[nH]cnc2[C@H]1c1nc2cc(F)ccc2o1` [Example 444, (S)-(4-(difluoromethyl)-2-(5-(trifluoromethyl)pyridin-2-yl)oxazol-5-yl)(4-(5-fluorobenzo[d]oxazol-2-yl)-6,7-dihydro-1H-imidazo[4,5-c]pyridin-5(4H)-yl)methanone], the AC50 was at most 0.5 µM.

In the case of `Cc1c(F)ccc2oc([C@H]3c4nc[nH]c4CCN3C(=O)c3oc(C(C)(C)O)nc3C(F)F)nc12` [Example 720, (R)-(4-(difluoromethyl)-2-(2-hydroxypropan-2-yl)oxazol-5-yl)(4-(5-fluoro-4-methylbenzo[d]oxazol-2-yl)-6,7-dihydro-1H-imidazo[4,5-c]pyridin-5(4H)-yl)methanone], the AC50 fell in the range of 0.5 to 1 µM.

Consider `O=C(c1nnc(-c2ccccn2)o1)N1CCc2[nH]cnc2[C@H]1c1nc2ccc(F)c(F)c2o1` [Example 546, (S)-(4-(6,7-difluorobenzo[d]oxazol-2-yl)-6,7-dihydro-1H-imidazo[4,5-c]pyridin-5(4H)-yl)(5-(pyridin-2-yl)-1,3,4-oxadiazol-2-yl)methanone], for which the AC50 was in the range of 0.5 to 1 µM.

Regarding `Cn1cc(-c2ccc3c(C(=O)N4CCc5[nH]cnc5[C@H]4c4nc5cccc(F)c5o4)cnn3c2)cn1` [Example 383, (S)-(4-(7-fluorobenzo[d]oxazol-2-yl)-6,7-dihydro-1H-imidazo[4,5-c]pyridin-5(4H)-yl)(6-(1-methyl-1H-pyrazol-4-yl)pyrazolo[1,5-a]pyridin-3-yl)methanone], the AC50 was at most 0.5 µM.

As for `COc1ccc(-c2nc(C(F)F)c(C(=O)N3CCc4[nH]cnc4[C@H]3c3nc4cc(F)ccc4o3)o2)nc1` [Example 445, (S)-(4-(difluoromethyl)-2-(5-methoxypyridin-2-yl)oxazol-5-yl)(4-(5-fluorobenzo[d]oxazol-2-yl)-6,7-dihydro-1H-imidazo[4,5-c]pyridin-5(4H)-yl)methanone], the AC50 was at most 0.5 µM.

Take `CN1CCN(c2nc(C(F)F)c(C(=O)N3CCc4[nH]cnc4[C@@H]3c3nc4cc(F)ccc4o3)o2)CC1` [Example 404, (R)-(4-(difluoromethyl)-2-(4-methylpiperazin-1-yl)oxazol-5-yl)(4-(5-fluorobenzo[d]oxazol-2-yl)-6,7-dihydro-1H-imidazo[4,5-c]pyridin-5(4H)-yl)methanone]: the AC50 was in the range of 1 to 5 µM.

As to `Cc1nc(C(C)(C)O)oc1C(=O)N1CCc2[nH]cnc2[C@H]1c1nc2cccc(F)c2o1` [Example 268, (S)-(4-(7-fluorobenzo[d]oxazol-2-yl)-6,7-dihydro-1H-imidazo[4,5-c]pyridin-5(4H)-yl)(2-(2-hydroxypropan-2-yl)-4-methyloxazol-5-yl)methanone], the AC50 is 0.5 to 1 µM.

`O=C(c1oc(N2CCOCC2)nc1C(F)F)N1CCc2[nH]cnc2[C@H]1c1nc2cc(F)ccc2o1` [Example 413, (S)-(4-(difluoromethyl)-2-morpholinooxazol-5-yl)(4-(5-fluorobenzo[d]oxazol-2-yl)-6,7-dihydro-1H-imidazo[4,5-c]pyridin-5(4H)-yl)methanone]: the half-maximal activity concentration (AC50) fell in the range of 0.5 to 1 µM.

As for “(R)-(4-(5,7-difluorobenzo[d]oxazol-2-yl)-6,7-dihydro-1H-imidazo[4,5-c]pyridin-5(4H)-yl)(5-(1-methyl-1H-pyrazol-4-yl)-1,3,4-oxadiazol-2-yl)methanone [Example 610]”, the AC50 was in the range of 1 to 5 µM.

Take `COc1cccc2oc([C@H]3c4nc[nH]c4CCN3C(=O)c3nnc(-c4cnn(C)c4)o3)nc12` [Example 625, (R)-(4-(4-methoxybenzo[d]oxazol-2-yl)-6,7-dihydro-1H-imidazo[4,5-c]pyridin-5(4H)-yl)(5-(1-methyl-1H-pyrazol-4-yl)-1,3,4-oxadiazol-2-yl)methanone]: the AC50 was 1 to 5 µM.

Take `Cc1nc(C(C)(C)C#N)oc1C(=O)N1CCc2[nH]cnc2[C@@H]1c1nc2cc(F)ccc2o1` [Example 186, (R)-2-(5-(4-(5-fluorobenzo[d]oxazol-2-yl)-4,5,6,7-tetrahydro-1H-imidazo[4,5-c]pyridine-5-carbonyl)-4-methyloxazol-2-yl)-2-methylpropanenitrile]: the half-maximal activity concentration (AC50) lay in the range of 1 to 5 µM.

For the molecule `CC(C)(O)c1nc(C(F)F)c(C(=O)N2CCc3[nH]cnc3[C@@H]2c2nc3c(F)cc(F)cc3o2)o1` [Example 300, (R)-(4-(4,6-difluorobenzo[d]oxazol-2-yl)-6,7-dihydro-1H-imidazo[4,5-c]pyridin-5(4H)-yl)(4-(difluoromethyl)-2-(2-hydroxypropan-2-yl)oxazol-5-yl)methanone], the AC50 lay within 1 to 5 µM.

Take `COc1ccc2oc([C@@H]3c4nc[nH]c4CCN3C(=O)c3nc(C(F)F)nn3C)nc2c1` [Example 549, (S)-(3-(difluoromethyl)-1-methyl-1H-1,2,4-triazol-5-yl)(4-(5-methoxybenzo[d]oxazol-2-yl)-6,7-dihydro-1H-imidazo[4,5-c]pyridin-5(4H)-yl)methanone]: the AC50 lay within 0.5 to 1 µM.

Regarding `Cn1cc(-c2nnc(C(=O)N3CCc4[nH]cnc4[C@@H]3c3nc4c(F)c(F)ccc4o3)o2)cn1` [Example 646, (R)-(4-(4,5-difluorobenzo[d]oxazol-2-yl)-6,7-dihydro-1H-imidazo[4,5-c]pyridin-5(4H)-yl)(5-(1-methyl-1H-pyrazol-4-yl)-1,3,4-oxadiazol-2-yl)methanone], the AC50 lay in the range of 1 to 5 µM.

With `Cc1ncoc1C(=O)N1CCc2[nH]cnc2[C@@H]1c1nc2ccc(F)cc2o1` [Example 598, (R)-(4-(6-fluorobenzo[d]oxazol-2-yl)-6,7-dihydro-1H-imidazo[4,5-c]pyridin-5(4H)-yl)(4-methyloxazol-5-yl)methanone], the AC50 was in the range of 1 to 5 µM.

Turning to `O=C(c1cnn2cc(N3CCC4(CC3)CC4)ccc12)N1CCc2[nH]cnc2[C@H]1c1nc2c(F)cccc2o1` [Example 505, (S)-(6-(6-azaspiro[2.5]octan-6-yl)pyrazolo[1,5-a]pyridin-3-yl)(4-(4-fluorobenzo[d]oxazol-2-yl)-6,7-dihydro-1H-imidazo[4,5-c]pyridin-5(4H)-yl)methanone], the AC50 was 0.5 to 1 µM.

For `CC(C)(O)c1nc(C(F)F)c(C(=O)N2CCc3[nH]cnc3[C@H]2c2nc3cc(F)ccc3o2)o1` (single isomer, unassigned) [Example 107], the half-maximal activity concentration (AC50) was at most 0.5 µM.

For the molecule `O=C(c1cnn2cc(N3CCC(O)CC3)ccc12)N1CCc2[nH]cnc2[C@@H]1c1nc2cccc(F)c2o1` [Example 372, (R)-(4-(7-fluorobenzo[d]oxazol-2-yl)-6,7-dihydro-1H-imidazo[4,5-c]pyridin-5(4H)-yl)(6-(4-hydroxypiperidin-1-yl)pyrazolo[1,5-a]pyridin-3-yl)methanone], the AC50 was 1 to 5 µM.

The same experiment, now with this note: A375 cells expressing R408W PAH; 24 hrs with compound, then 20 μM sepiapterin and 800 μM 13C9,15N-Phenylalanine for 4 hours; 13C-Tyrosine by LC-MS; average where tested multiple times.
Consider `Cc1cccc2nc(C3c4nc[nH]c4CCN3C(=O)c3cnn4cc(N5CCC(O)CC5)ccc34)oc12` (stereo not shown), for which the AC50 lay within 1 to 5 µM.

For `Cc1ccc2oc(C3c4nc[nH]c4CCN3C(=O)c3nc(C)nn3C)nc2c1` (stereo not shown), the AC50 was at least 5 µM.

For the molecule `O=C(c1nc(C(F)(F)F)co1)N1CCc2nc[nH]c2C1c1nc2cc(F)ccc2o1` (stereo not shown), the AC50 fell in the range of 1 to 5 µM.

As to `Cc1cccc2nc(C3c4nc[nH]c4CCN3C(=O)c3ncnn3C)oc12` (stereo not shown), the concentration at half-maximal activity (AC50) fell in the range of 1 to 5 µM.

Regarding `Cc1ccc2nc(C3c4nc[nH]c4CCN3C(=O)c3nnc(C)o3)oc2c1` (stereo not shown), the AC50 was at least 5 µM.

Consider `CC(C)(O)c1cc(C(=O)N2CCc3[nH]cnc3C2c2nc3ccc(F)cc3o2)on1` (single isomer, unassigned) [4R enantiomer of 2-{5-[4-(6-fluoro-1,3-benzoxazol-2-yl)-1H,4], for which the AC50 is at least 5 µM.

(Values after patent publication US20250171437A1 (Agios Pharmaceuticals,Inc., priority 2022, published 2025).)
